Experimental data taken from patent publication US9326513B2, “Fungicidal compositions” (Syngenta Participations AG, priority 2011, dated 2016).

Legend:
[1] = test system: Monographella nivalis (syn. Microdochium nivale, Fusarium nivale); assay: Monographella nivalis (snow mould, foot rot of cereals), PDB microtiter plate, visual after 72 hrs; format: cell-based
[2] = test system: Botrytis cinerea; assay: Botrytis cinerea (gray mould), PDB microtiter plate, visual after 72 hrs; format: cell-based; details: for inhibition at 0.025 ppm: rate 0.025 ppm; for inhibition at 0.05 ppm: rate 0.05 ppm; for inhibition at 0.1 ppm: rate 0.1 ppm; for inhibition at 2 ppm: rate 2 ppm
[3] = test system: Blumeria graminis f. sp. tritici (Erysiphe graminis f. sp. tritici); assay: Blumeria graminis f. sp. tritici / wheat / leaf disc preventative (powdery mildew on wheat); format: in vivo; details: foliar, compared to untreated control leaf disks, read-out: disease control
Procedure, shortened: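 Wheat leaf segments (cv. Kanzler) on agar were sprayed with formulated compound in water, inoculated with powdery mildew 1 day later, and kept at 20° C, 60% rh (24 h dark, then 12 h light/12 h dark). Percent disease control versus untreated scored 6-8 days after application; tested at 200 ppm.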

[4] = test system: Puccinia recondita f. sp. tritici; assay: Puccinia recondita f. sp. tritici / wheat / leaf disc curative (brown rust); format: in vivo; details: foliar, compared to untreated control leaf disks, read-out: disease control
Experimental: Puccinia recondita f. sp. tritici/Wheat/Leaf Disc Curative (Brown Rust) Wheat leaf segments cv. Kanzler are placed on agar in multiwell plates (24-well format). The leaf segments are inoculated with a spore suspension of the fungus. Plates were stored in darkness at 19° C. and 75% rh. The formulated test compound diluted in water was applied 1 day after inoculation.

[5] = test system: Puccinia recondita f. sp. tritici; assay: Puccinia recondita f. sp. tritici / wheat / leaf disc preventative (brown rust); format: in vivo; details: foliar, compared to untreated control leaf disks, read-out: disease control
Description: Puccinia recondita f. sp. tritici/Wheat/Leaf Disc Preventative (Brown Rust) Wheat leaf segments cv. Kanzler were placed on agar in multiwell plates (24-well format) and sprayed with the formulated test compound diluted in water. The leaf disks were inoculated with a spore suspension of the fungus 1 day after application.

[6] = test system: Pyrenophora teres; assay: Pyrenophora teres / barley / leaf disc preventative (net blotch); format: in vivo; details: foliar, compared to untreated control leaf disks, read-out: disease control
Description: Pyrenophora teres/Barley/Leaf Disc Preventative (Net Blotch) Barley leaf segments cv. Hasso were placed on agar in a multiwell plate (24-well format) and sprayed with the formulated test compound diluted in water. The leaf segments were inoculated with a spore suspension of the fungus 2 days after application.

[7] = applied alone, rate 0.15625 ppm
[8] = Monographella nivalis, applied alone, 0.0625 ppm
[9] = Monographella nivalis, applied alone

Molecule	pest or weed control at 200 ppm [3]	pest or weed control at 200 ppm [4]	pest or weed control at 200 ppm [5]	pest or weed control at 200 ppm [6]	also measured
Abamectin	–	–	–	–	Activity (%) ([1]; applied alone, 5 ppm): 0%; Activity (%) ([1]; applied alone, 10 ppm): 0%; Activity (%) ([1]; applied alone, 20 ppm): 50%; Activity (%) [1, 7]: 0%; Activity (%) ([1]; applied alone, rate 0.3125 ppm): 0%; Activity (%) ([1]; applied alone, rate 0.625 ppm): 0%; Activity (%) ([1]; applied alone, rate 1.25 ppm): 0%; Activity (%) ([1]; applied alone, rate 2.5 ppm): 0%; Activity (%) ([2]; alone, rate 1.25 ppm): 0%; Activity (%) ([2]; alone, rate 2.5 ppm): 0%; Activity (%) ([2]; alone, rate 5 ppm): 0%; Activity (%) ([2]; alone, rate 10 ppm): 0%; Activity (%) ([2]; alone, rate 20 ppm): 0%
CC12CC1(C)C(=O)N(c1cc(Cl)cc(Cl)c1)C2=O (stereo not drawn) [Procymidone]	–	–	–	–	inhibition at 1.25 ppm ([2]; Botrytis cinerea, alone, rate 1.25 ppm): 0%; inhibition at 2.5 ppm ([2]; Botrytis cinerea, alone, rate 2.5 ppm, read-out: Activity (%)): 50%; inhibition at 0.3125 ppm ([2]; Botrytis cinerea, single compound, rate 0.3125 ppm): 0%; inhibition at 0.625 ppm ([2]; Botrytis cinerea, single compound, rate 0.625 ppm): 0%; inhibition at 1.25 ppm ([2]; Botrytis cinerea, single compound, rate 1.25 ppm): 0%
CC/C=C\CC1=C(C)CCC1=O [cis-Jasmone]	–	–	–	–	Activity (%) ([1]; applied alone, 0.625 ppm): 0%; Activity (%) ([1]; applied alone, 1.25 ppm): 0%; Activity (%) ([1]; applied alone, 2.5 ppm): 0%; Activity (%) ([1]; applied alone, 5 ppm): 0%; Activity (%) [1, 7]: 0%; Activity (%) ([1]; applied alone, rate 0.3125 ppm): 0%; Activity (%) ([1]; applied alone, rate 0.625 ppm): 0%; Activity (%) ([1]; applied alone, rate 1.25 ppm): 0%; Activity (%) ([2]; alone, rate 0.625 ppm): 0%; Activity (%) ([2]; alone, rate 1.25 ppm): 0%; Activity (%) ([2]; alone, rate 2.5 ppm): 0%; Activity (%) ([2]; alone, rate 5 ppm): 0%
COC(=O)N(OC)c1ccccc1COc1ccn(-c2ccc(Cl)cc2)n1 [Pyraclostrobin]	–	–	–	–	inhibition at 0.0015625 ppm ([1]; Monographella nivalis, applied alone, rate 0.0015625 ppm): 0%; inhibition at 0.003125 ppm ([1]; Monographella nivalis, applied alone, rate 0.003125 ppm): 0%; inhibition at 0.00625 ppm ([1]; Monographella nivalis, single compound, rate 0.00625 ppm): 0%; inhibition at 0.0125 ppm ([1]; Monographella nivalis, single compound, rate 0.0125 ppm): 50%; inhibition at 0.025 ppm ([2]; Botrytis cinerea, alone): 0%; inhibition at 0.05 ppm ([2]; Botrytis cinerea, alone): 0%; inhibition at 0.1 ppm ([2]; Botrytis cinerea, alone): 0%; inhibition at 0.2 ppm ([2]; Botrytis cinerea, alone, rate 0.2 ppm): 20%; inhibition at 0.25 ppm ([2]; Botrytis cinerea, alone, rate 0.25 ppm): 50%; inhibition at 2 ppm ([2]; Botrytis cinerea, alone): 70%
CON(C(=O)c1cn(C)nc1C(F)F)C(C)Cc1c(Cl)cc(Cl)cc1Cl (stereo not drawn) [(VI), 3-(difluoromethyl)-N-methoxy-1-methyl-N-[1-methyl-2-(2,4,6-trichlorophenyl)ethyl]-1H-pyrazole-4-carboxamide, reference compound]	–	–	–	–	inhibition at 0.0625 ppm [1, 8]: 0%; inhibition at 0.125 ppm [1, 9]: 50%; inhibition at 0.0078125 ppm ([2]; Botrytis cinerea, alone, rate 0.0078125 ppm): 20%; inhibition at 0.015625 ppm ([2]; Botrytis cinerea, alone, rate 0.015625 ppm): 50%; inhibition at 0.03125 ppm ([2]; Botrytis cinerea, alone, rate 0.03125 ppm, read-out: Activity (%)): 70%; inhibition at 0.0625 ppm ([2]; Botrytis cinerea, alone, rate 0.0625 ppm, read-out: Activity (%)): 70%
CON=C(C(=O)OC)c1ccccc1CON=C(C)c1cccc(C(F)(F)F)c1 [Trifloxystrobin]	–	–	–	–	inhibition at 0.0125 ppm ([2]; Botrytis cinerea, alone, rate 0.0125 ppm): 0%; inhibition at 0.025 ppm ([2]; Botrytis cinerea, alone): 20%; inhibition at 0.05 ppm ([2]; Botrytis cinerea, alone): 50%; inhibition at 0.1 ppm ([2]; Botrytis cinerea, alone): 50%; inhibition at 0.5 ppm ([2]; Botrytis cinerea, alone, rate 0.5 ppm): 50%; inhibition at 1 ppm ([2]; Botrytis cinerea, alone, rate 1 ppm): 50%; inhibition at 2 ppm ([2]; Botrytis cinerea, alone): 50%
[Mn+2].[O-2] [Manganese oxide]	–	–	–	–	Activity (%) [1, 7]: 0%; Activity (%) ([1]; applied alone, rate 0.3125 ppm): 0%; Activity (%) ([1]; applied alone, rate 0.625 ppm): 0%; Activity (%) ([1]; applied alone, rate 1.25 ppm): 0%; Activity (%) ([1]; applied alone, rate 2.5 ppm): 0%
COC(=O)Nc1nc2ccccc2[nH]1 [Carbendazim]	–	–	–	–	inhibition at 0.015625 ppm ([1]; Monographella nivalis, applied alone, rate 0.015625 ppm): 0%; inhibition at 0.03125 ppm ([1]; Monographella nivalis, applied alone, rate 0.03125 ppm): 0%; inhibition at 0.0625 ppm ([1]; Monographella nivalis, applied alone, rate 0.0625 ppm): 0%
N#Cc1c(Cl)c(Cl)c(Cl)c(C#N)c1Cl [Chlorothalonil]	–	–	–	–	inhibition at 0.03125 ppm ([1]; Monographella nivalis, applied alone, 0.03125 ppm): 0%; inhibition at 0.0625 ppm [1, 8]: 20%; inhibition at 0.125 ppm [1, 9]: 70%
N#Cc1c(Cl)c(Cl)c(Cl)c(C#N)c1Cl [Chlorotalonil]	–	–	–	–	Activity (%) ([2]; alone, rate 0.0625 ppm): 0%; Activity (%) ([2]; alone, rate 0.125 ppm): 0%; Activity (%) ([2]; alone, rate 0.25 ppm): 20%
CCN(C)/C=N/c1cc(Br)c(OCc2cccc(Br)c2)nc1C [Q.101]	≥ 50%	≥ 50%	≥ 50%	≥ 50%	–
CCN(C)/C=N/c1cc(C(F)F)c(O[C@H]2CC[C@@H](C(C)C)CC2)nc1C [Q.247]	≥ 50%	≥ 50%	≥ 50%	≥ 50%	–
C#Cc1cc(/N=C/N(C)CC)c(C)nc1OC(C)c1cc(F)cc(F)c1 (stereo not drawn) [Q.229]	≥ 50%	≥ 50%	≥ 50%	≥ 50%	–
CCN(C)/C=N/c1cc(Br)c(OCc2ccc3ncccc3c2)nc1C [Q.209]	≥ 50%	≥ 50%	≥ 50%	≥ 50%	–
CCN(C)/C=N/c1cc(Br)c(OC2CCC(C(C)C)CC2)nc1C (stereo not drawn) [Q.334]	≥ 50%	≥ 50%	≥ 50%	≥ 50%	–
C=CCCC(C)Oc1nc(C)c(/N=C/N(C)CC)cc1Br (stereo not drawn) [Q.220]	≥ 50%	≥ 50%	≥ 50%	≥ 50%	–
CCN(C)/C=N/c1cc(Br)c(OCCc2ccc(Br)cc2)nc1C [Q.012]	≥ 50%	≥ 50%	≥ 50%	≥ 50%	–

Molecule	pest or weed control at 200 ppm [3]	pest or weed control at 200 ppm [4]	pest or weed control at 200 ppm [5]	pest or weed control at 200 ppm [6]	also measured
CCN(C)/C=N/c1cc(Br)c(OCCCC(C)O)nc1C (stereo not drawn) [Q.035]	≥ 50%	≥ 50%	≥ 50%	≥ 50%	–
CCN(C)/C=N/c1cc(Br)c(OC(C)c2cc(C)no2)nc1C (stereo not drawn) [Q.074]	≥ 50%	≥ 50%	≥ 50%	≥ 50%	–
CCN(C)/C=N/c1cc(I)c(OCc2ccccc2C)nc1C [Q.386]	≥ 50%	≥ 50%	≥ 50%	≥ 50%	–
CCN(C)/C=N/c1cc(Br)c(OC(C)Cc2ccccc2)nc1C (stereo not drawn) [Q.198]	≥ 50%	≥ 50%	≥ 50%	≥ 50%	–
CCN(C)/C=N/c1cc(Br)c(OC2CCC(C)C2)nc1C (stereo not drawn) [Q.167]	≥ 50%	≥ 50%	≥ 50%	≥ 50%	–
CCN(C)/C=N/c1cc(Br)c(OC2CCOCC2)nc1C [Q.244]	≥ 50%	≥ 50%	≥ 50%	≥ 50%	–
CCN(C)/C=N/c1cc(C)c(OCCCC(C)C)nc1C [Q.007]	≥ 50%	≥ 50%	≥ 50%	≥ 50%	–
CCN(C)/C=N/c1cc(Br)c(OC2Cc3cccc(C)c3C2)nc1C (stereo not drawn) [Q.200]	≥ 50%	≥ 50%	≥ 50%	≥ 50%	–
CCN(C)/C=N/c1cc(C)c(O[C@H]2CC[C@@H](C(C)C)CC2)nc1C [Q.186]	≥ 50%	≥ 50%	≥ 50%	≥ 50%	–
CCN(C)/C=N/c1cc(Br)c(OC2CCc3c(cccc3OC)C2)nc1C (stereo not drawn) [Q.019]	≥ 50%	≥ 50%	≥ 50%	≥ 50%	–
CCN(C)/C=N/c1cc(Br)c(OCCCCc2ccc(F)cc2)nc1C [Q.026]	≥ 50%	≥ 50%	≥ 50%	≥ 50%	–
CCN(C)/C=N/c1cc(Br)c(OC2Cc3ccc(C)cc3C2)nc1C (stereo not drawn) [Q.243]	≥ 50%	≥ 50%	≥ 50%	≥ 50%	–
CCN(C)/C=N/c1cc(Br)c(OC(C)CCC2CC2)nc1C (stereo not drawn) [Q.357]	≥ 50%	≥ 50%	≥ 50%	≥ 50%	–
CCN(C)/C=N/c1cc(Br)c(OCCc2ccccc2C)nc1C [Q.349]	≥ 50%	≥ 50%	≥ 50%	≥ 50%	–
CCN(C)/C=N/c1cc(Br)c(OCc2ccccc2)nc1C [Q.095]	≥ 50%	≥ 50%	≥ 50%	≥ 50%	–
CCN(C)/C=N/c1cc(Br)c(OCc2cc(F)cc(F)c2)nc1C [Q.105]	≥ 50%	≥ 50%	≥ 50%	≥ 50%	–
